Laboratory results from patent US11827543B2, “Method for continuous supply of superoxide-containing peracetate oxidant solution” (Clean Chemistry, Inc., priority 2014, dated 2023).

How the values were obtained:
[1] = ORP (oxidative-reductive potential) measurement of solutions and treated water; type: physicochemical; conditions: for ORP (mV vs SHE): early flowback water, Example 19, 1.7 mmol/L oxidant; for ORP: 29 mM, pH 7
Description: Example 9: Hydrogen Peroxide Residual Concentration and interference. A sodium peracetate oxidant solution was produced according to the procedure in Example 4 and diluted to 2800 mg/L (28.5 mmol/L) with either distilled water, for clean water conditions, or tap water containing about 0.18 mg/L copper, which served as an activation catalyst. Some samples were spiked with 30 or 60 mg/L (0.88 or 1.76 mmol/L, respectively) hydrogen peroxide from a 1000 mg/L stock solution. […] The temperature of the samples was maintained at 25±2° C. with a heated water bath. The ORP response was monitored over time to observe the impact of adding low concentrations of hydrogen peroxide. The pH was measured using a high sodium electrode (Oakton model 35805-05) with three point calibration and automatic temperature correction. The ORP (oxidative-reductive potential) of solutions was measured using an Oakton model 35805-15 ORP probe calibrated to the standard hydrogen electrode (SHE) using Thermo/Orion ORP standard 967901.
(§1) Water parameters were measured by a variety of methods. The pH was measured using a high sodium electrode (Oakton model 35805-05) with three point calibration and automatic temperature correction. The ORP (oxidative-reductive potential) of solutions was measured using an Oakton model 35805-15 ORP probe calibrated to the standard hydrogen electrode (SHE) using Thermo/Orion ORP standard 967901. Sodium ion concentration was measured using a Cole-Parmer ion selective electrode, EW-27504-30, with two point calibration of a sodium standard solution of NaCl. Chloride ion concentration was measured using a Cole-Parmer ion selective electrode, SC-27504-08, with two point calibration of a chloride standard solution of NaCl. All measurements using HACH methods were measured using a HACH DR900 colorimeter. Calcium, magnesium and total hardness concentrations were measured using HACH method 8030. Sulfate concentration was measured using HACH method 10248. Aluminum concentration was measured using HACH method 8012. Iron concentration was measured using HACH method 10249 modified with a longer reaction time to minimize interferences from organic impurities. Total suspended solids (TSS) concentration was measured using HACH method 8006 modified for smaller volumes. Turbidity was measured using HACH method 8237. ATP (adenosine triphosphate) concentration was measured using the LuminUltra 2nd Generation metabolic ATP measurement technology with the LuminUltra Quench Gone-Organic Modified sampling method, a PhotonMaster Luminometer and LumiCalc software. Acid producing bacteria (ABP) and sulfate reducing bacteria (SRB) cell culture concentrations were measured with standard 1 mL serial dilutions using Intertek APB and SRB culture media, 1% salinity.

bacteria = assay: ATP concentration (LuminUltra metabolic ATP measurement) in oxidant-treated water; type: cell-based; conditions: produced water, Example 18, 0.30 mmol/L oxidant
pH of treated water = type: physicochemical
Description: as §1

[2] = Chlorine dioxide stock solution concentration over time (HACH DPD method); type: physicochemical; conditions: 2800 mg/L stock solution, room temperature, 7 days
Description: Chlorine dioxide stock solution preparation: One AQUA-Tab 20 G chlorine dioxide tablet (Beckart Environmental, Inc.) was dissolved in 32 oz (946 mL) of distilled water in a closed polyethylene container according to the product instructions. The yellow solution was allowed to sit for at least 1 hour before use. The chlorine dioxide concentration was measured before use using the HACH DPD method no. 10126 after diluting 0.330 mL of the prepared chlorine dioxide stock solution with distilled water to 200 mL in a volumetric flask. The initial chlorine dioxide concentration of the stock solution was measured to be 2800 mg/L. The concentration decreased slowly over time at room temperature, e.g., 6.4% decrease in 7 days.

[3] = produced water, Example 18, 0.30 mmol/L oxidant

In the case of `OCl` [sodium hypochlorite, reference compound], the “ORP (constant)” value ([1]; diluted, pH 10.00±0.02, 25±2 °C) is reported as “about 914 mV vs SHE”.

With `[O][Cl+][O-]` [chlorine dioxide, reference compound] the “ORP (mV vs SHE)” value ([1]; contact time 3 minutes) was 646 mV vs SHE, the “ORP (mV vs SHE)” value ([1]; contact time 13 minutes) was 580 mV vs SHE and the “ORP (mV vs SHE)” value ([1]; contact time 35 minutes) was 496 mV vs SHE. The “ORP (mV vs SHE)” value ([1]; contact time 90 minutes) was 456 mV vs SHE, the “ORP (mV vs SHE), maximum” value [1, 3] was 818 mV vs SHE and the “ORP after slow decrease” value ([1]; produced water, Example 18, 0.30 mmol/L, in the following 17 minutes) was 785 mV vs SHE. For the same compound, the “ATP (pg/mL), at 30 min CT” value (bacteria) was 7.7 pg/mL, the “ATP reduction at 30 min CT” value (bacteria) was 94.3% and the “ATP (pg/mL), at 15 min CT” value (bacteria; untreated 135) was 10.3 pg/mL. The pH (pH of treated water; early flowback water, Example 19, 1.7 mmol/L oxidant, contact time 3 minutes) was 6.33, the pH (pH of treated water; early flowback water, Example 19, 1.7 mmol/L oxidant, contact time 13 minutes) was 6.32 and the pH (pH of treated water; early flowback water, Example 19, 1.7 mmol/L oxidant, contact time 35 minutes) was 6.32. For the same compound, the pH (pH of treated water; early flowback water, Example 19, 1.7 mmol/L oxidant, contact time 90 minutes) was 6.36, the pH (pH of treated water; [3]) was 5.6 and the “decrease of concentration of stock solution” value [2] was 6.4%.

In the case of `OO` [hydrogen peroxide, reference compound], the ORP [1] is reported as “about 0.5 V (SHE)”.

With `OCl` [hypochlorous acid, reference compound] the ORP [1] was “over 1.1 V (SHE)”.
